# Assay results from patent publication US20170030929A1, “DIAGNOSIS OF CHRONIC KIDNEY DISEASE BY QUANTITATIVE ANALYSIS OF POST-TRANSLATIONAL MODIFICATIONS OF PLASMA PROTEINS” (EXCORLAB GMBH, priority 2014, published 2017).
# What was measured:
# [1] = target: in-vitro guanidylated albumin (Homo sapiens, UniProt P02768); test: Effect of in-vitro guanidylation on protein bound fraction of albumin; details: albumin 75 μmol l^−1, ligand 7.5 μmol l^−1; over time of guanidylation (0-48 h)
# albumin = albumin (Homo sapiens, UniProt P02768); details: literature references; cited from earlier work
# Sequence of albumin (P02768 25-609): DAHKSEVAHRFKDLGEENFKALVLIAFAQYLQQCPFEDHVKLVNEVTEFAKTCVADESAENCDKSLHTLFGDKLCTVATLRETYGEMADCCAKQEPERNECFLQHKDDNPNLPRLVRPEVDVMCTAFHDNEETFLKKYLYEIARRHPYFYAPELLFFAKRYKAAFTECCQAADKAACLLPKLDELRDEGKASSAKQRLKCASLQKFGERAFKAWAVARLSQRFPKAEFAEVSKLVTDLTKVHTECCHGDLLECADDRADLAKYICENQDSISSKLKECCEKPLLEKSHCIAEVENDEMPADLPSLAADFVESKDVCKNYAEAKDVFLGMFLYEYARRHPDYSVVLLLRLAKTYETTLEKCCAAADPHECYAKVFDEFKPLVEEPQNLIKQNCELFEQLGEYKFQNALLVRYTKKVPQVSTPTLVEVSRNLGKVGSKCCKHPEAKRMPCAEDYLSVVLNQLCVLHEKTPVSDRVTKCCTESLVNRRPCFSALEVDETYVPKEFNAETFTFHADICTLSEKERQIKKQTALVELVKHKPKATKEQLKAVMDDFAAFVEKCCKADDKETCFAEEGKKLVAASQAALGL
# Sequence of in-vitro guanidylated albumin (P02768 25-609): as above
smiles,measurement,setting,value
N[C@@H](Cc1c[nH]c2ccccc12)C(=O)O [L-tryptophan],decrease of binding of albumin caused by in-vitro guanidylation,[1],81%
same,affinity to post-translational modified albumin as compared to indoxyl sulfate,albumin,more than two orders of magnitude lower affinity
